# Results: patent US9212138B2, “Use of derivatives of indoles for the treatment of cancer” (CENTRE NATIONAL DE LA RECHERCHE SCIENTIFIQUE, priority 2009, dated 2015)
# Biological target: T1, MKLP-2 (RabK6) (Homo sapiens, UniProt O95235, S2A)
# T1 construct: Expression clones for MKLP-21-519 (coding for residues 1 to 519) were obtained as follows; His-tag; made in house; host or cells: E. coli BL21(DE3)
# T1 sequence (O95235 1-519 S2A limits assumed): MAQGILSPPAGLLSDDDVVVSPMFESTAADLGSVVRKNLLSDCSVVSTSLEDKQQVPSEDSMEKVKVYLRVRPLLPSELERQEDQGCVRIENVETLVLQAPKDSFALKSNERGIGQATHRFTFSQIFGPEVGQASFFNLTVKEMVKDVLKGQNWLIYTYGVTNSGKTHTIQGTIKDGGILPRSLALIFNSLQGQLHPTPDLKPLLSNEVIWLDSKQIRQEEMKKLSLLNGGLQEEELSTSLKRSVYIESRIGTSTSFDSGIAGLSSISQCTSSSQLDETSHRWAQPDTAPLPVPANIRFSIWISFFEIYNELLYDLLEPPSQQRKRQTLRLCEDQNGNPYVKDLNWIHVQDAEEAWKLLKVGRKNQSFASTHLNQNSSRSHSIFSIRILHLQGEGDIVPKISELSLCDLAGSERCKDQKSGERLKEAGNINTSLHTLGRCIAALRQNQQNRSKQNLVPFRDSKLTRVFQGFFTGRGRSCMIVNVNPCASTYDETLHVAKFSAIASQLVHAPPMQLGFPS
# Test: biochemical
# Conditions: not given
# Experimental: All experiments were performed at room temperature using a 96-well Sunrise photometer (Tecan, Maennedorf, Switzerland) at a final volume of 100 μl per well.
# Steady-state ATPase rates were measured using the pyruvate kinase/lactate dehydrogenase-linked assay in buffer A25A (25 mM potassium ACES, pH 6.9, 2 mM MgAc2, 2 mM Na-EGTA, 0.1 mM Na-EDTA, 1 mM β-mercaptoethanol) supplemented with 1 mM MgATP; 2 mM PEP; 0.25 mM NADH; 3-10 μg/ml pyruvate kinase; 3 μg/ml lactate dehydrogenase and 8 μM taxol.
# The data were analyzed using Kaleidagraph 3.0 (Synergy Software, Reading, Pa.) and Microsoft Excel to obtain the kinetic variables.
# When necessary, the inhibitor concentrations were adapted depending on the initial IC50 value. Experiments were performed in triplicate and averaged data points are shown with error bars±SD.
row,Structure (SMILES),IC50 [µM]
1,"N#C/C(=C\c1cccc(C#N)c1)c1c[nH]c2ccc(O)cc12 [Example 55, (Z)-3-[2-cyano-2-(5-hydroxy-1H-indol-3-yl)-vinyl]-benzonitrile]",< 5
2,"NC(=O)/C(=C\c1cccnc1)c1c[nH]c2ccccc12 [Example 56, (Z)-2-(1H-indol-3-yl)-3-pyridin-3-yl-acrylamide]",> 50
3,"C#C/C(=C\c1cccnc1)c1c[nH]c2ccc(OC)cc12 [Example 58, (E)-5-methoxy-3-(1-(pyridin-3-yl)but-1-en-3-yn-2-yl)-1H-indole]",5 to 10
4,"COc1ccc2[nH]cc(/C(C#N)=C(\C)c3cccnc3)c2c1 [Example 60, (Z)-2-(5-methoxy-1H-indol-3-yl)-3-(pyridin-3-yl)-but-2-enenitrile]",< 5
5,"N#C/C(=N\c1cccnc1)c1c[nH]c2ccccc12 [Example 61, (Z)-(1H-indol-3-yl)-(pyridin-3-ylimino)-acetonitrile]",< 5

# System: not listed separately
# Test: Activity of side products, test not stated
# Conditions: side product of the synthesis
row,Structure (SMILES),activity
1,NC(=O)/C(=C/c1cccnc1)c1c[nH]c2ccccc12,no activity
2,CCOc1ccncc1/C=C(\C#N)c1c[nH]c2ccc(OC)cc12 [Example 47b],no activity
